# pEC50: −log10 of the molar value. Like-named read-outs stand apart in the source and are kept apart here.
# Assays:
# hGPR65 = biological target: T1, hGPR65 (Homo sapiens, UniProt Q8IYL9); experiment: cAMP detection in HeLa expression cell line, hGPR65; assay type: cell-based; details: for Emax: HeLa, relative to 100uM forskolin (100%) and DMSO (0%), read-out: hGPR Max Activity %; for EC50: hGPR EC50 (uM); for pEC50: hGPR EC50
# T1 construct: expressed in transfected cells; host or cells: HeLa (ATCC CCL-2), lentiviral transduction, pLX317
# T1 sequence (Q8IYL9 whole entry): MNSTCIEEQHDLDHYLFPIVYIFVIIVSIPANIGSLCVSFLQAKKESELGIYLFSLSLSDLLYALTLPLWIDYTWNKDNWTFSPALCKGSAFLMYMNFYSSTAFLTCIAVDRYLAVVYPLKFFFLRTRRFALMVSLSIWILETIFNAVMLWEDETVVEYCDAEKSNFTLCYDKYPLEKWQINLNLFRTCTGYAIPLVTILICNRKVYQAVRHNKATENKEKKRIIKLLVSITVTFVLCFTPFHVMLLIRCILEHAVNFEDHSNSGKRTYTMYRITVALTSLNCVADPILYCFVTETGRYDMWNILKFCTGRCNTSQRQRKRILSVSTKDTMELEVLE
# In short: (§1)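 HeLa cells stably expressing C-terminally V5-tagged receptor (lentiviral transduction, puromycin-selected) were stimulated with compound from a 10 mM DMSO stock for 30 min at RT in stimulation buffer adjusted to pH 7.2, 1500 cells per well. cAMP was read by LANCE Ultra TR-FRET (665/620 nm) after 1 h detection.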
# mGPR65 = biological target: T2, mGPR65 (Mus musculus, UniProt Q61038); experiment: cAMP detection in HeLa expression cell line, mGPR65; assay type: cell-based; details: for Emax: HeLa, relative to 100uM forskolin (100%) and DMSO (0%), read-out: mGPR Max Activity %; for EC50: mGPR EC50 (uM)
# T2 construct: expressed in transfected cells; host or cells: HeLa (ATCC CCL-2), lentiviral transduction, pLX317
# T2 sequence (Q61038 whole entry): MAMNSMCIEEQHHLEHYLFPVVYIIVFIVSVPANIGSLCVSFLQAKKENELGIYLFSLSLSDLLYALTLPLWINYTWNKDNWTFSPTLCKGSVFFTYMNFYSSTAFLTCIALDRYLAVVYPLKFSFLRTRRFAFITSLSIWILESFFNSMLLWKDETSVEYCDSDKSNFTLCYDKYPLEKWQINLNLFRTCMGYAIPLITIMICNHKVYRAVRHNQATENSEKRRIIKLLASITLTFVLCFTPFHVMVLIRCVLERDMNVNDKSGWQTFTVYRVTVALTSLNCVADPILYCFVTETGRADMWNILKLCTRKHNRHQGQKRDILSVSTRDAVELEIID
# In short: as §1
# hGPR65-SmBiT = biological target: T3, hGPR65-SmBiT (Homo sapiens, UniProt Q8IYL9); experiment: Nano-BiT target engagement, LgBiT-mGs recruitment to hGPR65-SmBiT in Expi293F cells; assay type: cell-based; details: 10 μM
# T3 construct: expressed in transfected cells; host or cells: Expi293F (Gibco), transient transfection
# T3 sequence (Q8IYL9 whole entry): as the sequence (Q8IYL9 whole entry) above
# Protocol: (§2) Target engagement was measured in Expi293F (Gibco, 100044202) cells using the Nano-Glo Live Cell Assay System (Promega, N2011). Nano-BiT plasmids were cloned from GPR65-, GPR4-, and GPR68-Tango plasmids. GPR65-Tango (Addgene plasmid # 66370; http://n2t.net/addgene:66370; RRID:Addgene_66370), GPR4-Tango (Addgene plasmid # 66358; http://n2t.net/addgene:66358; RRID:Addgene_66358), and GPR68-Tango (Addgene plasmid # 66371; http://n2t.net/addgene:66371; RRID:Addgene_66371) were gifts from Bryan Roth. Expi293F cells were transfected 1 day before kinetics with 500 ng of each plasmid using ExpiFectamine 293 Transfection Kit (Gibco, A14525). After 24 hours, cells were collected, washed, and resuspended in room temperature 0.1% PBS-BSA, adjusted to pH 7.4 using 1 M NaOH. Cells were transferred to white opaque 96-well microplates (100 μl per well, PerkinElmer, 6005290), followed by addition of the Nano-Glo Live Cell Reagent (25 μl per well). Baseline luminescence was measured for 10 cycles (1 cycle = 90 s) before adding compounds. All luminescence measurements were made on BMG Labtech PHERAstar FSX. Data analysis was performed using GraphPad Prism.
# mGPR65-SmBiT = biological target: T4, mGPR65-SmBiT (Mus musculus, UniProt Q61038); experiment: Nano-BiT target engagement, LgBiT-mGs recruitment to mGPR65-SmBiT; assay type: cell-based; details: 10 μM
# T4 construct: expressed in transfected cells; host or cells: Expi293F (Gibco), transient transfection
# T4 sequence (Q61038 whole entry): as the sequence (Q61038 whole entry) above
# Protocol: as §2
# hGPR4-SmBiT = biological target: T5, hGPR4-SmBiT (Homo sapiens, UniProt P46093); experiment: Nano-BiT target engagement, LgBiT-mGs recruitment to hGPR4-SmBiT; assay type: cell-based; details: 10 μM
# T5 construct: expressed in transfected cells; host or cells: Expi293F (Gibco), transient transfection
# T5 sequence (P46093 whole entry): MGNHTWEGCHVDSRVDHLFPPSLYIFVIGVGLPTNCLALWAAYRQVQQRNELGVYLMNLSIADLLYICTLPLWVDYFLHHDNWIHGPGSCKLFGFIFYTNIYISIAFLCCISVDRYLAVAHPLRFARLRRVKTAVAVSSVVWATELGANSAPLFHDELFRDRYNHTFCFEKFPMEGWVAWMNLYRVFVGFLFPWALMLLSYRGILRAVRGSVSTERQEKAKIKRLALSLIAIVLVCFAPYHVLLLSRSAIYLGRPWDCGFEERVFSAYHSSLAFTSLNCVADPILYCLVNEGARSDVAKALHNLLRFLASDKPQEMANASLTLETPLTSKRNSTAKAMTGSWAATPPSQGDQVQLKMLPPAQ
# Protocol: as §2
# hGPR65 I231L-SmBiT = biological target: T6, hGPR65 I231L-SmBiT (Homo sapiens, UniProt Q8IYL9, I231L); experiment: Nano-BiT target engagement, LgBiT-mGs recruitment to hGPR65 I231L-SmBiT; assay type: cell-based; details: 10 μM
# T6 construct: expressed in transfected cells; host or cells: Expi293F (Gibco), transient transfection
# T6 sequence (Q8IYL9 whole entry I231L): as the sequence (Q8IYL9 whole entry) above, with I231L counted along it
# Protocol: as §2
# [1] = tested on: WT HeLa cells expressing hGPR65; experiment: Cytotoxicity assay (CellTiter-Glo, 72 hours); assay type: cell-based, human
# Protocol: WT HeLa cells expressing hGPR65 were seeded at 2000 cells per well in 384-well plates. Compounds were tested in 10-point dose, starting at 50 μM. Cells were incubated with compounds for 72 hours at 37°C, 5% CO2. Cytotoxicity was measured using CellTiter-Glo Luminescent Cell Viability Assay (Promega, G7572) according to the manufacturer’s protocol. Luminescence measurements were made on BMG Labtech PHERAstar FSX. Data analysis was performed using GraphPad Prism.
# [2] = Solubility in phosphate buffer; assay type: physicochemical; details: read-out: solubility in phosphate buffer
# Lipophilicity (logD) = assay type: physicochemical
# [3] = 2nd mGPR column pair, NA = no activity
smiles,measurement,setting,value
"Cc1ccc(NC(=O)c2cnn3c(O)cc(-c4ccc(COC(C)C)cc4)nc23)c(F)c1 [BRD5080, O=C(NC1=C(F)C=C(C)C=C1)C2=C3N(N=C2)C(O)=CC(C4=CC=C(COC(C)C)C=C4)=N3]",mode of action from pH-dependent cAMP production,"hGPR65; 0 to 50 μM, pH range of 6.6 to 7.6",PAMs
same,activity for hGPR65 among prioritized molecules,"hGPR65; 1.56 μM, pH 7.2",highest activity
same,Emax,"hGPR65; 1st hGPR column pair, NA = no activity",80%
same,Emax,"hGPR65; 2nd hGPR column pair, NA = no activity",70.4%
same,EC50,hGPR65; NA = no activity,0.856 µM
same,EC50,"hGPR65; pH 7.2, 30 min",1.41 µM
same,pEC50,hGPR65; NA = no activity,5.78
same,pEC50,"hGPR65; pH 7.2, 30 min",5.83
same,"cAMP activity, hGPR65",hGPR65; pH 7.2,at least 40%
same,activity for mGPR65 among prioritized molecules,"mGPR65; 1.56 μM, pH 7.2",highest activity
same,cAMP response against mGPR65 among prioritized compounds,mGPR65; HeLa cells,highest cAMP response
same,Emax,mGPR65; [3],56%
same,Emax,mGPR65; NA = no activity,63.5%
same,EC50,mGPR65; [3],0.371 µM
same,EC50,"mGPR65; first pair of columns, pH 7.2, 30 min",0.432 µM
same,EC50,"mGPR65; second pair of columns, pH 7.2, 30 min",0.653 µM
same,EC50,mGPR65; NA = no activity,0.0578 µM
same,"cAMP activity, mGPR65",mGPR65; pH 7.2,at least 40%
same,mGs recruitment / engagement of hGPR65,hGPR65-SmBiT,showed engagement
same,"activity after HCl versus water, hGPR65",hGPR65-SmBiT; HCl or H2O at cycle 10,showed activity when preceded by the addition of HCl but not water
same,mGs recruitment / engagement of mGPR65,mGPR65-SmBiT,showed engagement
same,"activity after HCl versus water, mGPR65",mGPR65-SmBiT; HCl or H2O at cycle 10,showed activity when preceded by the addition of HCl but not water
same,response in cells expressing hGPR4-SmBiT,hGPR4-SmBiT,failing to elicit responses
same,G protein recruitment in cells expressing hGPR65 I231L,hGPR65 I231L-SmBiT,able to recruit G protein
same,cell viability,"[1]; 50 μM, 72 hours",slight decrease in cell viability
same,cytotoxicity,"[1]; 72-hour incubation, 0-50 μM",not cytotoxic
same,solubility,[2],13.6 µM
same,logD,"Lipophilicity (logD); pH 7.4, pH7.4, read-out: LogD (pH7.4)",3.65
same,logD,Lipophilicity (logD); read-out: lipophilicity (logD),3.62
